In ChEMBL document CHEMBL1909631, “Synthesis and anti-inflammatory activity of some new 4,5-dihydro-1,5-diaryl-1H-pyrazole-3-substituted-heteroazole derivatives” (Bioorg Med Chem Lett, 2011):

Columns and labels:
Rattus norvegicus [1] = assay: Antiinflammatory activity in Wistar rat assessed as protection against carrageenan-induced paw edema at 100 mg/kg, po administered 1 hr before carrageenan challenge measured after 4 hrs relative to control; type: functional
Rattus norvegicus [2] = assay: Ulcerogenicity in fasted Wistar rat assessed as ulceration at 300 mg/kg, po administered every 2 hrs; type: toxicity, organism-based; parameters: dose 300 mg/kg, route oral; details: in vivo
[3] = target: T1, Prostaglandin G/H synthase 2 (Homo sapiens) (UniProt P35354); assay: Inhibition of COX2 in human whole blood at 10 uM
T1 sequence (whole entry): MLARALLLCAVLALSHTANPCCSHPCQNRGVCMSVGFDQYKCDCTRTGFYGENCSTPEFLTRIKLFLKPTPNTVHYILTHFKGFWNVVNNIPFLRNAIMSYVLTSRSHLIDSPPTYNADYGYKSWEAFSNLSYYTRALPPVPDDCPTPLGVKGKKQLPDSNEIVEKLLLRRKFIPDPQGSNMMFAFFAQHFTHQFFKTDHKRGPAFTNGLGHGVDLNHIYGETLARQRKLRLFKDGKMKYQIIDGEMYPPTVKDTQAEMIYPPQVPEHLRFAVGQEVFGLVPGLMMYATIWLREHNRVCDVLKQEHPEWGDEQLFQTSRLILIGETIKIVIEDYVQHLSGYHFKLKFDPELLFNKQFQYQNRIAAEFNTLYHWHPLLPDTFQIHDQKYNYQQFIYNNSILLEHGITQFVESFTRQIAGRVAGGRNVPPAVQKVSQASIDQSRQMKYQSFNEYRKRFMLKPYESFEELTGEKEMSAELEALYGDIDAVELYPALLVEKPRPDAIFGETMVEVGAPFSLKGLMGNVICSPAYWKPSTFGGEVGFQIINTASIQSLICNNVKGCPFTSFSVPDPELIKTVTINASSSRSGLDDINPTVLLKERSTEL

Rattus norvegicus [4] = assay: Analgesic activity in Wistar rat assessed as inhibition of acetic acid-induced writhing at 100 mg/kg, po administered 1 hr before acetic acid challenge measured after 30 mins relative to control; type: functional

In the case of `Oc1nc(C2=NN(c3ccccc3)C(c3ccc(Cl)cc3)C2)no1` (racemic), the Activity (Rattus norvegicus [1]) is reported as 32.68%.

In the case of `NS(=O)(=O)c1ccc(N2N=C(c3nn[nH]n3)CC2c2ccc(Cl)cc2)cc1` (racemic), the Activity (Rattus norvegicus [2]) is reported as “Non-toxic”, the Activity (Rattus norvegicus [1]) is reported as 54.58% and the inhibition [3] is reported as 7%. For the same molecule, the inhibition in vivo at 100 mg/kg (Rattus norvegicus [4]) was 30.1%.

`Nc1nnc(C2=NN(c3ccccc3)C(c3ccc(Cl)cc3)C2)o1` (racemic) showed an Activity (Rattus norvegicus [1]) of 4.5%.

For `O=C(O)c1nnc(C2=NN(c3ccccc3)C(c3ccc(Cl)cc3)C2)o1` (racemic), the Activity (Rattus norvegicus [1]) was -19.3%.

`Nc1nnc(C2=NN(c3ccc(S(N)(=O)=O)cc3)C(c3ccc(Cl)cc3)C2)o1` (racemic) gave an Activity (Rattus norvegicus [1]) of 18.38%.

`CSc1nnc(C2=NN(c3ccccc3)C(c3ccc(Cl)cc3)C2)s1` (racemic) gave an Activity (Rattus norvegicus [1]) of 11.84%.

In the case of `Sc1nnc(C2=NN(c3ccccc3)C(c3ccc(Cl)cc3)C2)o1` (racemic), the Activity (Rattus norvegicus [1]) is reported as 32.74%.

With `O=C([O-])Cc1ccccc1Nc1c(Cl)cccc1Cl.[Na+]` [DICLOFENAC SODIUM] the Activity (Rattus norvegicus [2]) was “Toxic”, the Activity (Rattus norvegicus [1]) was 50.93% and the inhibition in vivo at 100 mg/kg (Rattus norvegicus [4]) was 76.6%.

`Cc1nnc(C2=NN(c3ccccc3)C(c3ccc(Cl)cc3)C2)o1` (racemic) was tested, and the Activity (Rattus norvegicus [1]) was 16.45%.

With `Oc1nnc(C2=NN(c3ccccc3)C(c3ccc(Cl)cc3)C2)o1` (racemic) the Activity (Rattus norvegicus [1]) was 24.26%.

For `Cn1nnc(C2=NN(c3ccc(S(N)(=O)=O)cc3)C(c3ccc(Cl)cc3)C2)n1` (racemic), the Activity (Rattus norvegicus [2]) was “Non-toxic”, the Activity (Rattus norvegicus [1]) was 48.58% and the inhibition [3] was 11%. It also gave an inhibition in vivo at 100 mg/kg (Rattus norvegicus [4]) of 23.7%.

Work on `O=C(O)c1nc(C2=NN(c3ccccc3)C(c3ccc(Cl)cc3)C2)no1` (racemic) yielded an Activity (Rattus norvegicus [1]) of 14.4%.

In the case of `N#CC1=NN(c2ccc(S(N)(=O)=O)cc2)C(c2ccc(Cl)cc2)C1` (racemic), the Activity (Rattus norvegicus [1]) is reported as 49.67%.

In the case of `O=C(O)Cc1nc(C2=NN(c3ccccc3)C(c3ccc(Cl)cc3)C2)no1` (racemic), the Activity (Rattus norvegicus [1]) is reported as 7.08%.

In the case of `Clc1ccc(C2CC(c3nn[nH]n3)=NN2c2ccccc2)cc1` (stereo not given), the Activity (Rattus norvegicus [1]) is reported as 37.8%.

Molecule `O=C(O)Cc1nnc(C2=NN(c3ccccc3)C(c3ccc(Cl)cc3)C2)o1` (racemic) has an Activity (Rattus norvegicus [1]) of 7.46%.

With `FC(F)(F)c1nnc(C2=NN(c3ccccc3)C(c3ccc(Cl)cc3)C2)o1` (racemic) the Activity (Rattus norvegicus [1]) was -46.9%.

With `CSc1nnc(C2=NN(c3ccc(S(N)(=O)=O)cc3)C(c3ccc(Cl)cc3)C2)s1` (racemic) the Activity (Rattus norvegicus [1]) was 26.12%.

With `FC(F)(F)c1nc(C2=NN(c3ccccc3)C(c3ccc(Cl)cc3)C2)no1` (racemic) the Activity (Rattus norvegicus [2]) was “Non-toxic”, the Activity (Rattus norvegicus [1]) was 49.45% and the inhibition [3] was 6%. It also gave an inhibition in vivo at 100 mg/kg (Rattus norvegicus [4]) of 15.8%.

`Sc1nc(C2=NN(c3ccccc3)C(c3ccc(Cl)cc3)C2)no1` (stereo not given) gave an Activity (Rattus norvegicus [1]) of 40.51%.

In the case of `NS(=O)(=O)c1ccc(N2N=C(c3noc(S)n3)CC2c2ccc(Cl)cc2)cc1` (racemic), the Activity (Rattus norvegicus [1]) is reported as 48.82%.

With `CCOC(=O)Cc1nc(C2=NN(c3ccccc3)C(c3ccc(Cl)cc3)C2)no1` (racemic) the Activity (Rattus norvegicus [1]) was 30.94%.

`NS(=O)(=O)c1ccc(N2N=C(c3noc(O)n3)CC2c2ccc(Cl)cc2)cc1` (racemic) was tested, and the Activity (Rattus norvegicus [1]) was 46.18%.

`CCOC(=O)c1nnc(C2=NN(c3ccccc3)C(c3ccc(Cl)cc3)C2)o1` (racemic) was tested, and the Activity (Rattus norvegicus [1]) was 4.5%.

For `Cn1nnc(C2=NN(c3ccccc3)C(c3ccc(Cl)cc3)C2)n1` (racemic), the Activity (Rattus norvegicus [1]) was 34.31%.

With `NS(=O)(=O)c1ccc(N2N=C(c3nnc(O)o3)CC2c2ccc(Cl)cc2)cc1` (racemic) the Activity (Rattus norvegicus [1]) was 35.38%.

In the case of `Cc1nc(C2=NN(c3ccccc3)C(c3ccc(Cl)cc3)C2)no1` (racemic), the Activity (Rattus norvegicus [2]) is reported as “Non-toxic”, the Activity (Rattus norvegicus [1]) is reported as 49.24% and the inhibition [3] is reported as 4%. The inhibition in vivo at 100 mg/kg (Rattus norvegicus [4]) was 23.7%.

`N#CC1=NN(c2ccccc2)C(c2ccc(Cl)cc2)C1` (racemic) showed an Activity (Rattus norvegicus [1]) of 39.43%.

`CCOC(=O)c1nc(C2=NN(c3ccccc3)C(c3ccc(Cl)cc3)C2)no1` (racemic) was tested, and the Activity (Rattus norvegicus [1]) was 20.35%.

`NS(=O)(=O)c1ccc(N2N=C(c3nnc(S)o3)CC2c2ccc(Cl)cc2)cc1` (racemic) was tested, and the Activity (Rattus norvegicus [1]) was 36.76%.

In the case of `CCOC(=O)Cc1nnc(C2=NN(c3ccccc3)C(c3ccc(Cl)cc3)C2)o1` (racemic), the Activity (Rattus norvegicus [1]) is reported as -17.6%.
